Experimental data from ChEMBL document CHEMBL4414666, “Structure-Activity Relationships of Pentacyclic Triterpenoids as Inhibitors of Cyclooxygenase and Lipoxygenase Enzymes” (J Nat Prod, 2019).

Experiments:
[1] = target: T1, Polyunsaturated fatty acid 5-lipoxygenase (Homo sapiens, UniProt P09917); test: Inhibition of human recombinant 5-LOX expressed in insect cells assessed as decrease in production of 5-HPETE and 5-HETE using arachidonic acid as substrate preincubated for 5 mins followed by substrate addition measured after 20 mins in dark by ferric ion oxidation-xylenol orange method
T1 sequence (P09917 whole entry): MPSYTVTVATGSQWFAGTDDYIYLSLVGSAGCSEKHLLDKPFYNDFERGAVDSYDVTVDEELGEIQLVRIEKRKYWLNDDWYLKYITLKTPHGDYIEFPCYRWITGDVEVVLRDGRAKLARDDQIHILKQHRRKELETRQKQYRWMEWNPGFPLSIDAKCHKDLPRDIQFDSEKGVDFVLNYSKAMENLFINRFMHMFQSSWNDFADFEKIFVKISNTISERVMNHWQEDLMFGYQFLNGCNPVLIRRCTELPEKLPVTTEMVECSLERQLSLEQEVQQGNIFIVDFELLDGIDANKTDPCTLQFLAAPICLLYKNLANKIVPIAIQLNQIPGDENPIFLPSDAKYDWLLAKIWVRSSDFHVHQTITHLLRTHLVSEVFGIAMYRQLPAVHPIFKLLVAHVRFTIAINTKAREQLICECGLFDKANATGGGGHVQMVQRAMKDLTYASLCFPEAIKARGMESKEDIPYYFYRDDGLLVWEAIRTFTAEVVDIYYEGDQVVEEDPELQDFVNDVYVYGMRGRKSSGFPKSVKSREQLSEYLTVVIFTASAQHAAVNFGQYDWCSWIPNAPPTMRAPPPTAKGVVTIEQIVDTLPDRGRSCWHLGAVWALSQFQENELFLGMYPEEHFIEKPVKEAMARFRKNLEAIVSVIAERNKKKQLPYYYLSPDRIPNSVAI

[2] = target: T2, Polyunsaturated fatty acid 5-lipoxygenase (Homo sapiens) (UniProt P09917); test: Inhibition of human recombinant 5-LOX expressed in insect cells assessed residual activity using arachidonic acid at 42 uM as substrate preincubated for 5 mins followed by substrate addition measured after 20 mins in dark by ferric ion oxidation-xylenol orange method relative to control
T2 sequence (whole entry): T1 sequence (P09917 whole entry)

[3] = target: T3, Polyunsaturated fatty acid lipoxygenase ALOX15B (Homo sapiens, UniProt O15296); test: (§1) Inhibition of human recombinant N-terminal His-tagged 15-LOX2 expressed in Escherichia coli using arachidonic acid as substrate preincubated for 5 mins followed by substrate addition measured after 20 mins in dark by ferric ion oxidation-xylenol orange assay
T3 sequence (O15296 whole entry): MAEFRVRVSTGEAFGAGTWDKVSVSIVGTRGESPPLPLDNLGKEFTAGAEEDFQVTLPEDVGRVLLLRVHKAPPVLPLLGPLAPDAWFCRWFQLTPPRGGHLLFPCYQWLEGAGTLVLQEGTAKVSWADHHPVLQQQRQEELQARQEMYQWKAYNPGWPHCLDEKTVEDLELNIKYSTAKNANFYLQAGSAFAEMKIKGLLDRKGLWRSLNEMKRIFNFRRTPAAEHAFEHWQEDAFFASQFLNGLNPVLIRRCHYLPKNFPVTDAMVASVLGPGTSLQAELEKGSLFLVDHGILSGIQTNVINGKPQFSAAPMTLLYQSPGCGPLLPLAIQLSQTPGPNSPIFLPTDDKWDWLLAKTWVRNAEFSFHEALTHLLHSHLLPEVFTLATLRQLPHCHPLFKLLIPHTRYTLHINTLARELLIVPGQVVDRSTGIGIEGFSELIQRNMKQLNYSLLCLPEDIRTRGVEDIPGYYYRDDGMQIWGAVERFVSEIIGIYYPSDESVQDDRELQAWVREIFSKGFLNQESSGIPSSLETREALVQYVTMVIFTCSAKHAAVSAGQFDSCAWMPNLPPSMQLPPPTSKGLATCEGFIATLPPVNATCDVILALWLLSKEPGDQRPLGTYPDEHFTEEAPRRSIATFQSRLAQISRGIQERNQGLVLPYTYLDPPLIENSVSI

[4] = target: T4, Polyunsaturated fatty acid lipoxygenase ALOX15B (Homo sapiens) (UniProt O15296); test: as §1, with “coli assessed as residual activity at 42 uM” for “coli”, “assay relative to control” for “assay”
T4 sequence (whole entry): T3 sequence (O15296 whole entry)

[5] = target: T5, Prostaglandin G/H synthase 1 (Ovis aries, UniProt P05979);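 also: recombinant ovine COX1 enzyme, PGE2 formed from arachidonic acid quantified by LC-MS, 10 min inhibitor preincubation then 45 min reaction, inhibition seen as reduced PGE2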
T5 sequence (P05979 whole entry): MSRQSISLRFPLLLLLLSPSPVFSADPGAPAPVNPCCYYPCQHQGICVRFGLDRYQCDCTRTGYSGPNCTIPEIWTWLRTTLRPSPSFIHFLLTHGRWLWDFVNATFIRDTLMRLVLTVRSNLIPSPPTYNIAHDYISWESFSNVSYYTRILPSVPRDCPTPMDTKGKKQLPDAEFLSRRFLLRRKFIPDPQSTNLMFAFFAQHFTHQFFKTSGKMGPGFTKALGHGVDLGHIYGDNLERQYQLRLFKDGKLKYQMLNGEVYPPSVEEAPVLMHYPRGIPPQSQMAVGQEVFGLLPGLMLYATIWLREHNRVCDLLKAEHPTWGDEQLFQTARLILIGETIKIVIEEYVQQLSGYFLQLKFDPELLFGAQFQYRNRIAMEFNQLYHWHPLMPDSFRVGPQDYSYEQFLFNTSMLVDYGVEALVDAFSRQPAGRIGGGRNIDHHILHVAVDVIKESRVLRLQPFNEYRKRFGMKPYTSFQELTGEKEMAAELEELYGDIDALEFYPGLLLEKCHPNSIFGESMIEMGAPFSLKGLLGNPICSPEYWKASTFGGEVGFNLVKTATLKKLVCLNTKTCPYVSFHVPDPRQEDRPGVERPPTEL
Description: Inhibition of ovine recombinant COX1 assessed as decrease in formation of PGE2 using arachidonic acid as substrate preincubated for 10 mins followed by substrate addition measured after 45 mins by LC-MS analysis

[6] = target: T6, Prostaglandin G/H synthase 2 (Homo sapiens, UniProt P35354); test: biochemical; format: cell-based, Sf21;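 also: recombinant enzyme produced in baculovirus-infected Sf21 cells, arachidonic acid substrate, PGE2 output quantified by LC-MS after 45 min, compounds preincubated 10 min beforehand, lower PGE2 means inhibition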
T6 sequence (P35354 whole entry): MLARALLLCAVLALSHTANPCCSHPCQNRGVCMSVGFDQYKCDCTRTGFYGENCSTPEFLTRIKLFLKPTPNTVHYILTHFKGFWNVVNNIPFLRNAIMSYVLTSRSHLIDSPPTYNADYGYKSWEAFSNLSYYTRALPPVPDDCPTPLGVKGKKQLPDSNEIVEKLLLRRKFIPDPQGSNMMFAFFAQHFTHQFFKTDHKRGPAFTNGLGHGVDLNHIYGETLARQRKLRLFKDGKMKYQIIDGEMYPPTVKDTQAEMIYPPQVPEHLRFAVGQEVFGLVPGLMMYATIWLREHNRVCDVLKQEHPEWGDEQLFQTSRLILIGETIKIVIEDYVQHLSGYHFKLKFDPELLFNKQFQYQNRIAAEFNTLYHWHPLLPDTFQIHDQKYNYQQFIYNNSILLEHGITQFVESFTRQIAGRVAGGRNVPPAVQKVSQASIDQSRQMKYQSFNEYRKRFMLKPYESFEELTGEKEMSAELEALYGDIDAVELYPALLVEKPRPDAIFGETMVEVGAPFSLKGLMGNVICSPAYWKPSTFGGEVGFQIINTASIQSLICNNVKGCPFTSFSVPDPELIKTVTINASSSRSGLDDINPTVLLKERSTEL
Description: Inhibition of human recombinant COX2 expressed in baculovirus infected sf21 cells assessed as decrease in PGE2 formation using arachidonic acid as substrate preincubated for 10 mins followed by substrate addition measured after 45 mins by LC-MS analysis

SMILES | IC50 ([1]; read-out: IC50) [µM] | Activity [2] [%] | IC50 ([3]; read-out: IC50) [µM] | Activity [4] [%] | IC50 [5] | IC50 ([6]; sf21) | IC50 [3] | IC50 ([6]; read-out: IC50) [µM] | IC50 [1]
CC1(C)CC[C@]2(C(=O)O)CC[C@]3(C)C(=CC[C@@H]4[C@@]5(C)CC[C@H](O)[C@@](C)(CO)[C@@H]5CC[C@]43C)[C@@H]2C1 [HEDERAGENIN] | > 40 | 59.8 | > 40 | 64.7 | Not Active | Not Active |  |  | 
C[C@H]1[C@H](C)CC[C@]2(C)CC[C@]3(C)C(=CC[C@@H]4[C@@]5(C)CC[C@H](O)C(C)(C)[C@@H]5CC[C@]43C)[C@H]12 | > 40 | 55.5 |  | 100 | Not Active | Not Active | Not Active |  | 
CC1(C)CC[C@]2(C(=O)O)CC[C@]3(C)C(=CC[C@@H]4[C@@]5(C)CC[C@H](O)[C@@](C)(C(=O)O)[C@@H]5CC[C@]43C)[C@@H]2C1 | > 40 | 86 |  | 100 | Not Active | Not Active | Not Active |  | 
CC1(C)CC[C@]2(C(=O)O)CC[C@]3(C)C(=CC[C@@H]4[C@@]5(C)C[C@H](O)[C@H](O)[C@@](C)(C(=O)O)[C@@H]5CC[C@]43C)[C@@H]2C1 | 30.4 | 40.7 |  | 100 | Not Active |  | Not Active | > 40 | 
CC1(C)CC[C@]2(C(=O)O)CC[C@]3(C)C(=CC[C@@H]4[C@@]5(C)CC[C@H](O)[C@@](C)(C=O)[C@@H]5CC[C@]43C)[C@@H]2C1 |  | 100 |  | 100 | Not Active | Not Active | Not Active |  | Not Active
CC1(C)CC[C@]2(CO)CC[C@]3(C)C(=CC[C@@H]4[C@@]5(C)CC[C@H](O)C(C)(C)[C@@H]5CC[C@]43C)[C@@H]2C1 [ERYTHRODIOL] | > 40 | 60.7 |  | 100 | Not Active | Not Active | Not Active |  | 
CC1(C)CC[C@]2(C)CC[C@]3(C)C(=CC[C@@H]4[C@@]5(C)CC[C@H](O)[C@](C)(CO)[C@@H]5CC[C@]43C)[C@@H]2C1 | 30.6 | 29.8 |  | 100 | Not Active | Not Active | Not Active |  | 
CC1(C)CC[C@]2(C)CC[C@]3(C)C(=CC[C@@H]4[C@@]5(C)CC[C@H](O)C(C)(C)[C@@H]5CC[C@]43C)[C@@H]2C1 [beta-AMYRIN] | > 40 | 73.3 | > 40 | 97.2 | Not Active | Not Active |  |  | 
CC1(C)CC[C@]2(C)CC[C@]3(C)C(=CC(=O)[C@@H]4[C@@]5(C)CC[C@H](O)C(C)(C)[C@@H]5CC[C@]43C)[C@@H]2C1 | > 40 | 70.4 |  | 100 | Not Active |  | Not Active | > 40 | 
CC1(C)[C@@H](O)CC[C@]2(C)[C@H]3C(=O)C=C4[C@@H]5C[C@@](C)(C(=O)O)CC[C@]5(C)CC[C@@]4(C)[C@]3(C)CC[C@@H]12 [ENOXOLONE] | 24.8 | 28.3 | > 40 | 98.6 | Not Active |  |  | > 40 | 
C[C@H]1[C@H](C)CC[C@]2(C)CC[C@]3(C)C(=CC[C@@H]4[C@@]5(C)CCC(=O)C(C)(C)[C@@H]5CC[C@]43C)[C@H]12 |  | 100 |  | 100 | Not Active |  | Not Active | > 40 | Not Active
CC1(C)[C@@H](O)CC[C@]2(C)[C@H]3C(=O)C=C4[C@@H]5C[C@@](C)(CO)CC[C@]5(C)CC[C@@]4(C)[C@]3(C)CC[C@@H]12 | 25.7 | 25.2 |  | 100 | Not Active |  | Not Active | > 40 | 
